The values below come from US9138434B2, “Octahydrothienoquinoline derivative, pharmaceutical composition comprising derivative, and use of these” (KISSEI PHARMACEUTICAL CO., LTD., priority 2011, dated 2015).

Read-outs that look alike come from different tables or passages of the source.

Experiment [1] has as its target T1, human dopamine D2 receptor (Homo sapiens, UniProt P14416).
T1 construct: accorded to it of human dopamine D2 receptor (NM1-000795) registered on NCBI completely; expressed in transfected cells; membrane homogenates
Briefly: Stimulating activities on human dopamine D2 receptor, [35S]GTPγS binding to hD2R#7 cell membrane homogenates. Type of experiment: biochemical. As to the method: Identification Test of Stimulating Activities on Human Dopamine D2 Receptor
4) Preparation of Membrane Homogenates from hD2R#7 Cells
(2) Preparation of Membrane Homogenates from hD2R#7 Cells
The cells, which were grown to confluence in 150 mm dishes (IWAKI), were harvested with isotonic buffer (50 mM Tris (Sigma), 2 mM ethylenediamine-tetraacetic acid (Invitrogen), and 125 mM sodium chloride (Wako Pure Chemicals), pH 7.4) and centrifuged at 1880×g and 4° C. for 10 minutes, and the cell pellets were then suspended in isotonic buffer. After being subjected to one cycle of freezing and thawing, the cells were centrifuged at 1880×g and 4° C. for 10 minutes, and the cell pellets were suspended in isotonic buffer. The cells were centrifuged at 1880×g and 4° C. for 10 minutes, and the cell pellets were suspended in isotonic buffer and homogenate buffer (10 mM sodium bicarbonate (Nacalai) and 5 mM ethylenediamine-tetraacetic acid, pH 7.5). The volume ratio of isotonic-to-homogenate buffer was 2. The cells were sonicated and centrifuged at 1880×g and 4° C. for 10 minutes, and the supernatants were ultracentrifuged at 80000×g and 4° C. for 30 minutes. The final cell pellets were suspended in homogenate buffer containing protease inhibitor cocktail (Nacalai) and stored at −80° C. until use. The protein concentration was determined using BCA Protein Assay Kit (Pierce) in accordance with the manufacturer's instructions.
5) Determination of Stimulating Activities of Human Dopamine D2 Receptor
The stimulating activities of human dopamine D2 receptor was determined by measuring the binding potential of [^35S]-guanosine 5′-[gamma-thio]triphosphate ([^35S]GTPγS, PerkinElmer) according to the method described by Newman-Tancredi A. et al. (Naunyn-Schmiedeberg's Arch Pharmacol, 1999, vol. 359, pp. 447-453) with a minor modification. Test compounds and dopamine hydrochloride (Fluka) as positive control were dissolved in dimethyl sulfoxide (CARLBIOCHEM), resulting in 30 mM. The both compounds were diluted with assay buffer (50 mM Tris, 100 mM sodium chloride, 5 mM magnesium chloride (Nacalai), 1 mM ethylenediamine-tetraacetic acid, 1 mM dithiothreitol (Wako Pure Chemicals), 10 μM guanosine diphosphate (Wako Pure Chemicals) and 0.5% bovine serum albumin (Sigma), pH 7.4) to a final concentration of 100 pM (only test compounds), 1 nM, 10 nM, 100 nM, 1 μM, 10 μM and 100 μM (only dopamine hydrochloride). The above membrane homogenates and [^35S]GTPγS were diluted with assay buffer to a final concentration of 0.06 mg/mL and 0.6 nM, respectively. The serial diluted compounds (50 μL), the diluted membrane homogenates (50 μL) and the diluted [^35S]GTPγS (50 μL) were mixed on multi-screen 96-well plate (Millipore) and shaken lightly at room temperature for 60 minutes. The reaction was terminated by vacuum filtration with three times washes of ice-cold wash buffer (50 mM Tris, 100 mM sodium chloride, 5 mM magnesium chloride, and 1 mM ethylenediamine-tetraacetic acid, pH 7.4). After drying the bottoms of the plate at 60° C., MicroScinti-40 (PerkinElmer) (30 μL) was added in the plate. The tops of the plate were sealed by TopSeal-A (PerkinElmer), and the radioactivity was determined in a TopCount NXT (registered mark) (PerkinElmer) after shaking lightly for 5-10 minutes. The data was analyzed by nonlinear regression and sigmoidal dose-response curve fitting using GraphPad PRISM 4.0 (GraphPad Software), and values of EC50 (concentration of the compound producing half the maximal effect of the compound) were calculated. The data was presented as mean value (n=2).
(In general: GTPγS resists hydrolysis and so accumulates on activated G proteins.)

The target in experiment [2] is T2, human serotonin 5-HT2B receptor (Homo sapiens, UniProt P41595).
T2 construct: expressed in transfected cells; host or cells: HEK293, transient transfection (Lipofectamine 2000)
Briefly: Stimulating activities on human serotonin 5-HT2B receptor, intracellular calcium in forced expression HEK293 cells. The experiment is classed as cell-based. Conditions: intracellular calcium (Fluo-4), HEK293 cells transiently expressing human 5-HT2B receptor; mean, n=2; read-out: EC50. The protocol: Identification Test of Stimulating Activities on Human Serotonin 5-HT2B Receptor
The PCR was performed using forward primer depicted as sequence ID No. 4, reverse primer depicted as sequence ID No. 5 and KOD-Plus-Ver.2 (TOYOBO) as template of human brain hippocampus cDNA (Clontech). The PCR product was inserted into a plasmid (pcDNA3.1/V5-His-Topo (registered mark)). The PCR product-inserted plasmid was transformed in E. coli (One Shot TOP10 Chemically Competent). That E. coli was incubated in LB agar medium contained 50 μg/mL ampicillin for a day. A selected colony was incubated in LB medium contained 50 μg/mL ampicillin and PCR product-inserted plasmid was purified with QIAprep Spin Miniprep Kit (QIAGEN).
Mostly confluent HEK293 cells were washed with PBS, followed by exfoliation with 0.05% trypsin-EDTA and the cells were suspended in D-MEM liquid medium (phenol red-free, low glucose, pyruvic acid were contained) containing fetal bovine serum (final concentration: 10%) and GlutaMax (registered mark)I (final concentration: 2 mM). The suspension was scattered at 5×10^4 cells/100 L/well on poly-D-lysine-coated 96-well microplate (BD BioCoat (registered mark)). The scattered cells were cultured in 5% CO2 incubator at 37° C. Human serotonin 5-HT2B receptor expression plasmid was transfected in that cells according to the procedure seeing below.
Human serotonin 5-HT2B receptor expression plasmid and Lipofectamine (registered mark) 2000 (Invitrogen) were diluted to 0.008 g/L and 0.016 g/L each other with OPTI-MEM (registered mark)I Reduced-Serum Medium and incubated at room temperature. After incubation, the human serotonin 5-HT2B receptor exoression plasmid-diluted liquid and Lipofectamine (registered mark) 2000-diluted liquid were mixed at an equal volume and incubated at room temperature to form a complex. The complex was dispensed at 50 μL/well on the cells prepared above. The cells were incubated in 5% CO2 incubator at 37° C. for 2 days. After incubation, the cells were used as human serotonin 5-HT2B receptor forced expression cells for measurement of intracellular calcium concentration.
3) Determination of Stimulating Activities of Human Serotonin 5-HT2B Receptor
The stimulating activities of human serotonin 5-HT2B receptor was determined by measuring of intracellular calcium concentration. The 30 mM dimethyl sulfoxide (DMSO) solution contained test compounds or serotonin hydrochloride (Sigma) as positive control, was diluted with assay buffer ((HBSS), 20 mM HEPES, 1.3 mM calcium chloride, 0.5 mM magnesium chloride and 0.4 mM magnesium sulfate were contained, pH7.4) to appropriate concentration.
The forced expression cells were washed with assay buffer, and 100 μL/well of fluorescent calcium indicator (Fluo-4 NW Calcium Assay Kit) was added and incubated in 5% CO2 incubator at 37° C. After incubation, 50 μL/well of each test compound was added, and the concentration of intracellular calcium was measured as fluorescent signal with FlexStation (registered mark) II (Molecular Devices). The data was analyzed by nonlinear regression and sigmoidal dose-response curve fitting using GraphPad PRISM 4.0, and values of EC50 (concentration of the compound producing half the maximal effect of the compound) were calculated. The data was presented as mean value (n=2).

The mark [3] stands for this setting: [35S]GTPγS binding, membrane homogenates of HEK293 cells stably expressing human D2 receptor, mean, n=2, read-out: EC50.

T2 sequence (P41595 whole entry): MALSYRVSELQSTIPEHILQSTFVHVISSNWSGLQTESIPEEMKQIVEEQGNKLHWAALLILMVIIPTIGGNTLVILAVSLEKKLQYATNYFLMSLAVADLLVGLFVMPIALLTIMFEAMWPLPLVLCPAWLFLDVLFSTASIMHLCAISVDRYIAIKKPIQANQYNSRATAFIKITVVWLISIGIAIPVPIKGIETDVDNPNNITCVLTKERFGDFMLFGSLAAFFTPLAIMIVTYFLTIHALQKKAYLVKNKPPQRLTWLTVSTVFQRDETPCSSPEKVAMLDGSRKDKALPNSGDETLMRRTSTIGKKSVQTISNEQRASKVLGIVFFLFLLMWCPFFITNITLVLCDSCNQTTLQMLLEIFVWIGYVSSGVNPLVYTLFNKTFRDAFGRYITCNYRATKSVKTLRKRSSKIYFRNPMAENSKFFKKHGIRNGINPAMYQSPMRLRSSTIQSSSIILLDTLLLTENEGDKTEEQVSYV
T1 sequence (P14416 whole entry): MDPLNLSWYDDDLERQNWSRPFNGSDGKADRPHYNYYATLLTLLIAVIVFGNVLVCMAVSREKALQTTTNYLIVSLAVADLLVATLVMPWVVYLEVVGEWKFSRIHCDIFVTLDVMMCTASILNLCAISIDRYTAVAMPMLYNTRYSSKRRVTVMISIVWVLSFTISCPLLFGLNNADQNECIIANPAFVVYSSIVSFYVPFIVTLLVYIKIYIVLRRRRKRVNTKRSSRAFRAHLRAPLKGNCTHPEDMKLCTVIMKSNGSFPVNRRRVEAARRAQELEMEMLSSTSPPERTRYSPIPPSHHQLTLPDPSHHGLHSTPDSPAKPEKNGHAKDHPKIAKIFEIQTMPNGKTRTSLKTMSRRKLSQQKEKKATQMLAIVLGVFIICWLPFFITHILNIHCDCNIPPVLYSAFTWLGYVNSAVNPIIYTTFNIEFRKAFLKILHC

A word on the EC50: it is the concentration at which the effect is half-maximal. For the compound `CN(C)CCNC(=O)N(CCc1ccccc1)C(=O)[C@@H]1C[C@@H]2Cc3c(sc(N)c3C#N)C[C@H]2N(C)C1` (relative stereo) [1-30, 1-{[(4aR*,6R*,8aR*)-2-amino-3-cyano-8-methyl-4H,4aH,5H,6H,7H,8H,8aH,9H-thieno[3,2-g]quinolin-6-yl]carbonyl}-3-[2-(dimethylamino)ethyl]-1-(2-phenylethyl)urea], the EC50 in experiment [1] (setting [3]) is 4 nM; in experiment [2] it was above 10000 nM. With `CN(C)CCNC(=O)N(CC(C)(C)C)C(=O)[C@@H]1C[C@@H]2Cc3c(sc(N)c3C#N)C[C@H]2N(C)C1` (relative stereo) [1-56, 1-{[(4aR*,6R*,8aR*)-2-amino-3-cyano-8-methyl-4H,4aH,5H,6H,7H,8H,8aH,9H-thieno[3,2-g]quinolin-6-yl]carbonyl}-3-[2-(dimethylamino)ethyl]-1-(2,2-di-methylpropyl)urea], in experiment [1] (setting [3]), the 50% effective concentration (EC50) stood at 9 nM. `CCCN(C(=O)NCC(C)(C)N(C)C)C(=O)[C@@H]1C[C@@H]2Cc3c(sc(N)c3C#N)C[C@H]2N(C)C1` (relative stereo) [1-82, 1-{[(4aR*,6R*,8aR*)-2-amino-3-cyano-8-methyl-4H,4aH,5H,6H,7H,8H,8aH,9H-thieno[3,2-g]quinolin-6-yl]carbonyl}-3-[2-(dimethylamino)-2-methylpropyl]-1-propylurea]: the results for the EC50 in experiment [1] (setting [3]) and in experiment [2] were 13 nM and above 10000 nM, respectively. As to `CCN(C(=O)NCC(CC)(CC)N(C)C)C(=O)[C@@H]1C[C@@H]2Cc3c(sc(N)c3C#N)C[C@H]2N(C)C1` (relative stereo) [1-84, 1-{[(4aR*,6R*,8aR*)-2-amino-3-cyano-8-methyl-4H,4aH,5H,6H,7H,8H,8aH,9H-thieno[3,2-g]quinolin-6-yl]carbonyl}-3-[2-(dimethylamino)-2-ethylbutyl]-1-ethylurea], in experiment [2], the EC50 was above 10000 nM. Consider `CN(C)CCNC(=O)N(CC1CC1)C(=O)[C@@H]1C[C@@H]2Cc3c(sc(N)c3C#N)C[C@H]2N(C)C1` (single isomer, unassigned) [1-36], for which, in experiment [1] (setting [3]), the EC50 is 10 nM.

On to `CCCN(C(=O)NCCNC)C(=O)[C@@H]1C[C@@H]2Cc3c(sc(N)c3C#N)C[C@H]2N(C)C1` [1-2], for which the EC50 was 12 nM in experiment [1] (setting [3]) and above 10000 nM in experiment [2].

For the compound `CCNC(=O)N(CCN1CCCC1)C(=O)[C@@H]1C[C@@H]2Cc3c(sc(N)c3C#N)C[C@H]2N(C)C1` [1-6, 1-{[(4aR,6R,8aR)-2-amino-3-cyano-8-methyl-4H,4aH,5H,6H,7H,8H,8aH,9H-thieno[3,2-g]quinolin-6-yl]carbonyl}-3-ethyl-1-[2-(pyrrolidin-1-yl)ethyl]urea], the concentration giving a half-maximal response (EC50) in experiment [1] (setting [3]) was 11 nM; in experiment [2], above 10000 nM. Turning to `CCCN1C[C@H](C(=O)N(CCCN(C)C)C(=O)NCC)C[C@@H]2Cc3c(sc(N)c3C#N)C[C@H]21` [1-13], the EC50 in experiment [1] (setting [3]) worked out at 7 nM. Still for that read-out and setting: with `CCN(C(=O)NCCCOC)C(=O)[C@@H]1C[C@@H]2Cc3c(sc(N)c3C#N)C[C@H]2N(C)C1` [1-21] the figure was 21 nM.

On to `CCN(C(=O)NC)C(=O)[C@@H]1C[C@@H]2Cc3c(sc(N)c3C#N)C[C@H]2N(C)C1` [1-23], for which the EC50 in experiment [1] (setting [3]) was 8 nM; in experiment [2], above 10000 nM. As for `CCN(C(=O)NCc1ccccn1)C(=O)[C@@H]1C[C@@H]2Cc3c(sc(N)c3C#N)C[C@H]2N(C)C1` [1-25], in experiment [1], the EC50 was 15 nM. As to `CN(C)CCNC(=O)N(Cc1cccs1)C(=O)[C@@H]1C[C@@H]2Cc3c(sc(N)c3C#N)C[C@H]2N(C)C1` [1-37], the EC50 in experiment [1] (setting [3]) amounted to 6 nM.

As for `C=CCN(C(=O)NCCN(C)C)C(=O)[C@@H]1C[C@@H]2Cc3c(sc(N)c3C#N)C[C@H]2N(C)C1` [1-39], the EC50 in experiment [1] (setting [3]) stood at 17 nM.

In the case of `CCN(C(=O)NCCc1ccccc1CCN(C)C)C(=O)[C@@H]1C[C@@H]2Cc3c(sc(N)c3C#N)C[C@H]2N(C)C1` [1-44], in experiment [1] (setting [3]), the EC50 came out at 13 nM. Same read-out and setting: then `CN(C)CCNC(=O)N(CCCC(F)(F)F)C(=O)[C@@H]1C[C@@H]2Cc3c(sc(N)c3C#N)C[C@H]2N(C)C1` [1-61], with 11 nM. The same measure, in the same setting: then `CCCCN(C(=O)NCCN1CCN(C)CC1)C(=O)[C@@H]1C[C@@H]2Cc3c(sc(N)c3C#N)C[C@H]2N(C)C1` [1-66], with 14 nM; and `COCCN(C(=O)NCCN1CCCCC1)C(=O)[C@@H]1C[C@@H]2Cc3c(sc(N)c3C#N)C[C@H]2N(C)C1` [1-68], with 12 nM. For the compound `CCCN(C(=O)NCC(C)(C)CN(C)C)C(=O)[C@@H]1C[C@@H]2Cc3c(sc(N)c3C#N)C[C@H]2N(C)C1` [1-83], the 50% effective concentration (EC50) was 6 nM in experiment [1] (setting [3]) and above 10000 nM in experiment [2]. Consider `CCN(C(=O)NCCN(C)c1ccccc1)C(=O)[C@@H]1C[C@@H]2Cc3c(sc(N)c3C#N)C[C@H]2N(C)C1` [1-86], for which, in experiment [1] (setting [3]), the EC50 came to 13 nM. The same measure, in the same setting: with `CCCCN(C(=O)NCCN(C)CCO)C(=O)[C@@H]1C[C@@H]2Cc3c(sc(N)c3C#N)C[C@H]2N(C)C1` [1-87] the figure was 22 nM; with `CCCCN(C(=O)NCCN(CC)CC)C(=O)[C@H]1CN[C@@H]2Cc3sc(N)c(C#N)c3C[C@H]2C1` [1-88], 24 nM. Regarding `CCCN(C(=O)NC1CN(C)C1)C(=O)[C@@H]1C[C@@H]2Cc3c(sc(N)c3C#N)C[C@H]2N(C)C1` [1-99], the EC50 in experiment [1] (setting [3]) is 8 nM; in experiment [2], above 10000 nM. As to `CCCN1C[C@H](CSC)C[C@@H]2c3cccc4[nH]cc(c34)C[C@H]21` [Pergolide, pergolide, reference compound], in experiment [2], the EC50 came to 287 nM.
